In patent US10722484B2, “Methods of cancer treatment” (K-Gen, Inc., priority 2016, dated 2020):
Where two headings read alike, the source gives them in different places.

Tests used:
Assay in all cases: Proliferation assay (CellTiter Glo)
MiaPaCa-2 = type: cell-based; settings: Homo sapiens, MIA PaCa-2, 96 hours
THP1 = type: cell-based, human; settings: 96 hours; for EC50: Homo sapiens, THP-1
Experimental: (§1) The dose range for most compounds was 4.6 nM-30 μM. The dose ranges for some compounds were adjusted downward to 0.46 nM-3 μM or 0.08 nM-0.5 μM or 0.03 nM-0.2 μM. […] The results are shown in Tables 3-6 for pancreatic cancer, lung cancer, colon/gastric cancer, and leukemia.

HL60 = type: cell-based, human; settings: 96 hours; for EC50: Homo sapiens, HL-60
Experimental: as §1

H358 = type: cell-based; settings: HE58, 96 hours; for EC50: Homo sapiens, NCI-H358
Experimental: as §1

AsPC-1 = type: cell-based; settings: 96 hours; for EC50: Homo sapiens, ASPC1
Experimental: as §1

Pan2.03 = type: cell-based; settings: 96 hours
Experimental: as §1

Capan-1 = type: cell-based; settings: 96 hours; for EC50: Homo sapiens
Experimental: as §1

H727 = type: cell-based; settings: 96 hours; for EC50: Homo sapiens, NCI-H727
Experimental: as §1

LS180 = type: cell-based; settings: 96 hours; for EC50: Homo sapiens
Experimental: as §1

KP-4 = type: cell-based; settings: 96 hours; for EC50: Homo sapiens
Experimental: as §1

A549 = type: cell-based; settings: 96 hours; for EC50: Homo sapiens
Experimental: as §1

CCRF-CEM = type: cell-based; settings: 96 hours; for EC50: Homo sapiens
Experimental: as §1

H441 = type: cell-based; settings: 96 hours; for EC50: Homo sapiens, NCI-H441
Experimental: as §1

SW620 = type: cell-based; settings: 96 hours; for EC50: Homo sapiens, SW-620
Experimental: as §1

HCT116 = type: cell-based; settings: 96 hours; for EC50: Homo sapiens, HCT-116
Experimental: as §1

AGS = type: cell-based; settings: 96 hours; for EC50: Homo sapiens
Experimental: as §1

Pan2.13 = type: cell-based; settings: 96 hours
Experimental: as §1

`CC(=O)O[C@H]1C(=O)[C@@]2(C)[C@H]([C@H](OC(=O)c3ccccc3)[C@]3(O)C[C@H](OC(=O)[C@H](O)[C@@H](NC(=O)c4ccccc4)c4ccccc4)C(C)=C1C3(C)C)[C@]1(OC(C)=O)CO[C@@H]1C[C@@H]2O` [Paclitaxel] showed an EC50 (MiaPaCa-2; MiaPaCa-2 (K-RAS: G12C), absolute EC50, read-out: Ab EC50) of 3.4 nM, an EC50 (MiaPaCa-2; MiaPaCa-2, relative EC50, read-out: Re EC50) of 3.3 nM and an EC50 (THP1; THP1 (N-RAS: G12D), absolute EC50, read-out: Ab EC50) of 8.3 nM. For the same compound, the EC50 (THP1; THP1, relative EC50, read-out: Re EC50) was 7.6 nM, the “Top Inhibition %” value (THP1; THP1, % of top inhibition) was 91.2% and the “Top Inhibition %” value (HL60; HL60, % of top inhibition) was 98.7%. For the same compound, the EC50 (HL60; HL60 (N-RAS: Q61L), absolute EC50, read-out: Ab EC50) was 5.2 nM, the EC50 (HL60; HL60, relative EC50, read-out: Re EC50) was 5.2 nM and the “Top Inhibition %” value (H358; % of top inhibition) was 89.2%. The EC50 (H358; absolute EC50, read-out: Ab EC50) was 2.4 nM, the EC50 (H358; relative EC50, read-out: Re EC50) was 1.8 nM and the “Top Inhibition %” value (AsPC-1; AsPC-1, % of top inhibition) was 60.9%. It also gave an EC50 (AsPC-1; AsPC-1 (K-RAS: G12D), absolute EC50, read-out: Ab EC50) of 10 nM, an EC50 (AsPC-1; AsPC-1, relative EC50, read-out: Re EC50) of 3.8 nM and an EC50 (Pan2.03; Pan2.03 (K-RAS: G12D), absolute EC50, read-out: Ab EC50) of 3.3 nM. For the same compound, the “Top Inhibition %” value (Pan2.03; Pan2.03, % of top inhibition) was 64.7%, the EC50 (Pan2.03; Pan2.03, relative EC50, read-out: Re EC50) was 1.8 nM and the “Top Inhibition %” value (Capan-1; Capan-1, % of top inhibition) was 73.5%. For the same compound, the EC50 (Capan-1; Capan-1 (K-RAS: G12V), absolute EC50, read-out: Ab EC50) was 11 nM, the EC50 (Capan-1; Capan-1, relative EC50, read-out: Re EC50) was 7.2 nM and the “Top Inhibition %” value (H727; H727, % of top inhibition) was 49.0%. It also gave an EC50 (H727; H727 (K-RAS: G12V), absolute EC50, read-out: Ab EC50) of over 500 nM, an EC50 (H727; H727, relative EC50, read-out: Re EC50) of 2.3 nM and an EC50 (LS180; LS180 (K-RAS: G12D), absolute EC50, read-out: Ab EC50) of 14 nM. The EC50 (LS180; LS180, relative EC50, read-out: Re EC50) was 8.8 nM, the “Top Inhibition %” value (LS180; LS180, % of top inhibition) was 67.1% and the EC50 (KP-4; KP-4 (K-RAS: G12C), absolute EC50, read-out: Ab EC50) was 1.9 nM. The EC50 (KP-4; KP-4, relative EC50, read-out: Re EC50) was 1.8 nM, the “Top Inhibition %” value (KP-4; KP-4, % of top inhibition) was 96.2% and the “Top Inhibition %” value (A549; A549, % of top inhibition) was 86.0%. For the same compound, the EC50 (A549; A549 (K-RAS: G12S), absolute EC50, read-out: Ab EC50) was 2.6 nM, the EC50 (A549; A549, relative EC50, read-out: Re EC50) was 2.3 nM and the “Top Inhibition %” value (CCRF-CEM; CCRF-CEM, % of top inhibition) was 97.8%. For the same compound, the EC50 (CCRF-CEM; CCRF-CEM (K-RAS: G12D), absolute EC50, read-out: Ab EC50) was 4 nM, the EC50 (CCRF-CEM; CCRF-CEM, relative EC50, read-out: Re EC50) was 3.9 nM and the “Top Inhibition %” value (H441; H441, % of top inhibition) was 51.9%. For the same compound, the EC50 (H441; H441 (K-RAS: G12V), absolute EC50, read-out: Ab EC50) was 35.8 nM, the EC50 (H441; H441, relative EC50, read-out: Re EC50) was 3.5 nM and the EC50 (SW620; SW620 (K-RAS: G12V), absolute EC50, read-out: Ab EC50) was 12 nM. For the same compound, the EC50 (SW620; SW620, relative EC50, read-out: Re EC50) was 9.4 nM, the “Top Inhibition %” value (SW620; SW620, % of top inhibition) was 92.1% and the “Top Inhibition %” value (HCT116; HCT116, % of top inhibition) was 94.8%. For the same compound, the EC50 (HCT116; HCT116 (K-RAS: G13D), absolute EC50, read-out: Ab EC50) was 2.2 nM, the EC50 (HCT116; HCT116, relative EC50, read-out: Re EC50) was 2.1 nM and the “Top Inhibition %” value (AGS; AGS, % of top inhibition) was 87.7%. For the same compound, the EC50 (AGS; AGS (gastric, K-RAS: G12D), absolute EC50, read-out: Ab EC50) was 4.7 nM, the EC50 (AGS; AGS, relative EC50, read-out: Re EC50) was 3.9 nM and the EC50 (Pan2.13; Pan2.13 (K-RAS: Q61H), absolute EC50, read-out: Ab EC50) was 65 nM. The “Top Inhibition %” value (Pan2.13; Pan2.13, % of top inhibition) was 53.2% and the EC50 (Pan2.13; Pan2.13, relative EC50, read-out: Re EC50) was 2.7 nM.
